In US9132164B2, “Pharmaceutical compositions comprising angiotensin-(1-9), derivatives thereof, or a vector expressing ACE2, useful for treating cardiovascular, pulmonary, cerebral, and/or renal remodeling” (PONTIFICIA UNIVERSIDAD CATOLICA DE CHILE, priority 2008, dated 2015):
Marks after values point to notes of the source that are not given here.

Key:
Type in all cases: in vivo, Sprague Dawley rats
[1] = test system: sham and infarcted rats (left coronary artery ligation); test: Effect of candesartan and enalapril on blood pressure, morphometry and function of the left ventricle after coronary artery ligation; settings: for Infarct size LV / LVAWT / LVEDD / LVESD / LVFS / SBP / LLVWT / LVP content / LVW/BW / mRNA ANF / β-MHC: 10 mg/kg daily by gavage, 8 weeks, average ± SEM
Method: (§1) Male Sprague Dawley rats were kept in cages with access to water and food ad libitum. This procedure was performed in accordance with the Guide for the Care and Use of Laboratory Animals, published by “U.S. National Institutes of Health” (NIH publication No 85-23, revised 1985) and was approved by our Institutional Ethics Committee. For studies with enalapril and candesartan, 71 adult normotensive rats were randomly separated into two groups and underwent a sham surgery (surgery without ligation of the coronary artery, n=34) or myocardial infarction following a surgery with ligation of the left coronary artery (infarction, n=37) as previously described (Ocaranza et al, Hypertension 48:572-8, 2006). Briefly, the left coronary artery was ligated between the pulmonary artery exit and left auricle with a 7-0 silk suture under aseptic conditions in rats anaesthetized with ketamine-HCl/xilazine (35/7 mg/kg intraperitoneal, respectively). Sham rats underwent the same surgical procedure except that the suture was not passed around the left coronary artery. Myocardial infarction was confirmed by electrocardiography 24 h following surgery. Mortality rate from myocardial infarction following ligation of the left coronary artery was 25% within 48 h after occlusion. Infarct size in survivors was determined by planimetry of endocardial circumference of left ventricle on histological sections. Sham and infracted rats were randomized to receive the carrier, candesartan (10 mg/kg of body weight daily) or enalapril (10 mg/kg of body weight daily) by gavage for 8 weeks, beginning 48 h after infarction.
Systolic blood pressure (SBP) was determined by using the “tail-cuff” method by investigators who were blind to the treatment group. Left ventricle function was determined by transthoracic bidimensional echocardiography using a Sonos 5000 equipped with a 5 to 12 MHz sectorial electronic ultraband S12 Philips transducer. The following echocardiographic parameters were determined: left ventricular end-systolic diameter (LVESD), left ventricular end diastolic diameter (LVEDD), left ventricular fractional shortening (LVFS), left ventricular anterior wall thickness (LVAWT), and left ventricular posterior wall thickness (LLVWT).
The extent of left ventricular hypertrophy was calculated by the relationship among left ventricular weight (LVW), body weight (BW), mRNA relative levels of the auricular natriuretic factor (ANF), left ventricular protein content (LVP), and protein levels of β-myosinheavy chain (β-MHC) as described in (Ocaranza et al, Hypertension 48:572-8, 2006).
Left ventricular hypertrophy (LVH) was assessed by ecocardiography, relative left ventricle weight (RLVW, mg left ventricle weight (LVW)/body weight (BW)), relative levels of auricular natriuretic factor (ANF) mRNA, left ventricle protein (LVP) content, and β-myosin heavy chain (β-MHC) content are described in example 1.

[2] = Circulating angiotensin levels post coronary artery ligation (HPLC and radioimmunoassay); settings: for Ang I / Ang II / Ang II/Ang I / Ang-(1 -7) / Ang-(1-7)/Ang II / Ang-(1 -9) / Ang-(1-9)/Ang I: plasma, 10 mg/kg daily, 8 weeks, average ± SEM
Method: as §1
(§2) Plasma angiotensin and bradykinin levels were determined as described by (Ocaranza et al, Hypertension 48:572-8, 2006; Ocaranza et al, Life Sci. 78:1535-42, 2005; Campbell et al, J. Mol. Cell. Cardiol. 27:1545-60, 1995). Briefly, rats were anesthetized with a combination of ketamin (125 mg/kg) and xilazin (12.5 mg/kg) administered via intraperitoneal injection. […] Plasmas were stored at −80° C. until their extraction using C18 Sep-Pak cartridges, and peptides were acetylated. Acetylated angiotensin II, angiotensin I, angiotensin-(1-7), angiotensin-(1-9), bradykinin-(1-7) and bradykinin-(1-9) were separated by high performance liquid chromatography (HPLC) and were detected by radioimmunoassay.
(§3) Plasma angiotensin and bradykinin (BK) levels were determined by high performance liquid chromatography and radioimmunoassay as described in example No 2. Angiotensin-I levels are lower in the infarcted rats group, associated with higher levels of angiotensin-II. However, plasma angiotensin-(1-7) and angiotensin-(1,9) levels were similar in sham rats and infarcted rats. Enalapril and candesartan increase both angiotensin-(1-9) circulating levels, and -(1-7)/angiotensin-II and angiotensin-(1-9)/angiotensin-I ratios in both experimental groups. Plasma angiotensin-(1-7) levels were increased by candesartan, and bradykinin-(1-9) levels were increased by enalapril both in infarcted rats and sham rats (Tables 3 and 4).

[3] = Circulating bradykinin levels post coronary artery ligation (HPLC and radioimmunoassay); settings: for Bk-(1-7) / Bk-(1-7)/Bk-(1-9) / Bk-(1-9): plasma, 10 mg/kg daily, 8 weeks, ± SEM
Method: as §1, §2, §3

[4] = both experimental groups (sham and infarcted rats)

## CCOc1nc2cccc(C(=O)O)c2n1Cc1ccc(-c2ccccc2-c2nnn[nH]2)cc1 [candesartan]
[1]; infarcted rats (MI)
  Infarct size LV: 30 ± 1%
  LVAWT: 0.9 ± 0.4 mm
  LVEDD: 8.0 ± 0.3 mm
  LVESD: 5.9 ± 0.4 mm
  LVFS: 22 ± 2 %
  SBP: 88 ± 4*^#¶ mm Hg
[1]; sham rats
  LLVWT: 1.1 ± 0.0 mm
  LVAWT: 1.1 ± 0.4 mm
  LVEDD: 7.7 ± 0.2 mm
  LVESD: 5.1 ± 0.1 mm
  LVFS: 30 ± 2%
  LVP content: 11.6 ± 1.1 mg
  LVW/BW: 2.7 ± 0.1 mg/g
  SBP: 84 ± 4*^#¶ mm Hg
  mRNA ANF: 0.7 ± 0.2 times
  β-MHC: 1.1 ± 0.2 times
[2]; infarcted rats (MI)
  Ang I: 30.7 ± 1.9 fmol/g
  Ang II: 34.6 ± 4.2*^¶ fmol/g
  Ang II/Ang I: 4.5 ± 0.6*^#¶
  Ang-(1 -7): 14.4 ± 2.7*^#¶ fmol/g
  Ang-(1-7)/Ang II: 1.02 ± 0.06*^#¶
  Ang-(1 -9): 43.8 ± 2.9 *^#¶ fmol/g
  Ang-(1-9)/Ang I: 2.8 ± 1.1*^#¶
[2]; sham rats
  Ang I: 22.6 ± 5.3 fmol/g
  Ang II: 38.6 ± 7.2 fmol/g
  Ang II/Ang I: 3.3 ± 0.9
  Ang-(1 -7): 10.9 ± 1.6*^#¶ fmol/g
  Ang-(1-7)/Ang II: 0.49 ± 0.15
  Ang-(1 -9): 36.2 ± 4.1 fmol/g
  Ang-(1-9)/Ang I: 2.6 ± 0.7
[3]; infarcted rats (MI)
  Bk-(1-7): 5.44 ± 1.60 fmol/g
  Bk-(1-7)/Bk-(1-9): 1.18 ± 0.21^¶
  Bk-(1-9): 4.08 ± 1.43^¶ fmol/g
[3]; sham rats
  Bk-(1-7): 4.41 ± 1.5 fmol/g
  Bk-(1-7)/Bk-(1-9): 1.69 ± 0.51
  Bk-(1-9): 4.30 ± 1.36 fmol/g

## CCOC(=O)[C@H](CCc1ccccc1)N[C@@H](C)C(=O)N1CCC[C@H]1C(=O)O [enalapril]
[1]; infarcted rats (MI)
  Infarct size LV: 31 ± 2%
  LLVWT: 1.5 ± 0.1 mm
  LVAWT: 0.9 ± 0.1 mm
  LVEDD: 7.1 ± 0.2 mm
  LVESD: 5.4 ± 0.3 mm
  LVFS: 21 ± 1 %
  SBP: 110 ± 3 mm Hg
[1]; infarcted rats, week 8
  left ventricle dilatation: significantly prevented
[1]; sham rats
  LLVWT: 1.4 ± 0.0 mm
  LVAWT: 1.3 ± 0.2 mm
  LVEDD: 7.5 ± 0.3 mm
  LVESD: 5.2 ± 0.1 mm
  LVFS: 30 ± 1%
  LVP content: 12.4 ± 0.8 mg
  LVW/BW: 2.7 ± 0.2 mg/g
  SBP: 113 ± 2 mm Hg
  mRNA ANF: 0.9 ± 0.1 times
  β-MHC: 1.3 ± 0.2 times
[2]; [4]
  -(1-7)/angiotensin-II ratio: increase
  angiotensin-(1-9) circulating levels: increase
  angiotensin-(1-9)/angiotensin-I ratio: increase
[2]; infarcted rats (MI)
  Ang I: 32.4 ± 0.8 fmol/g
  Ang II: 23.3 ± 5.4 fmol/g
  Ang II/Ang I: 0.72 ± 0.1
  Ang-(1 -7): 3.8 ± 0.6 fmol/g
  Ang-(1-7)/Ang II: 0.26 ± 0.02
  Ang-(1 -9): 29 ± 3 fmol/g
  Ang-(1-9)/Ang I: 0.89 ± 0.02
[2]; sham rats
  Ang I: 30.7 ± 1.0 fmol/g
  Ang II: 15.4 ± 3.8 fmol/g
  Ang II/Ang I: 0.45 ± 0.05
  Ang-(1 -7): 4.1 ± 0.5 fmol/g
  Ang-(1-7)/Ang II: 0.25 ± 0.07
  Ang-(1 -9): 25 ± 5 fmol/g
  Ang-(1-9)/Ang I: 0.75 ± 0.03
[3]; both in infarcted rats and sham rats
  bradykinin-(1-9) levels: increased
[3]; infarcted rats (MI)
  Bk-(1-7): 1.40 ± 0.17 fmol/g
  Bk-(1-7)/Bk-(1-9): 0.17 ± 0.06
  Bk-(1-9): 7.89 ± 1.22 fmol/g
[3]; sham rats
  Bk-(1-7): 1.48 ± 0.46 fmol/g
  Bk-(1-7)/Bk-(1-9): 0.19 ± 0.04
  Bk-(1-9): 9.53 ± 2.99 fmol/g
